Experimental data published in patent US20230117034A1, “PYRAZOLOTRIAZINES” (Bayer Aktiengesellschaft, priority 2019, published 2023).
pIC50: −log10 of the molar value.

Experiments:
[1] = target: T1, CDK12 (nuclear staining in CAL-120 cells) (Homo sapiens, UniProt Q9NYV4); assay: CDK12 nuclear protein level: immunofluorescence/high content analysis (CAL-120); assay type: cell-based; conditions: for DC50: CAL-120 cells, 24 h, immunofluorescence, 50% reduction of nuclear CDK12 staining intensity, median, read-out: CDK12 degradation IF, DC50- [mol/l] (median); for (IC50 CDK12 high ATP) to (Degradation DC50 CDK12) ratio: ratio of IC50 CDK12 high ATP kinase assay to DC50 CDK12 degradation (IF, CAL-120)
T1 construct: endogenous in cells; host or cells: CAL-120 human breast cancer cells (DSMZ ACC 459)
Outline: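 CAL-120 cells were treated with compound for 24 h at 37 °C, fixed with PFA and immunostained for CDK12. Nuclear CDK12 intensity was quantified by automated image analysis and normalized to DMSO and control. DC50 is the concentration giving 50% reduction of nuclear staining.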

[2] = target: T2, CDK2/CycE (Homo sapiens, UniProt P24941); assay: CDK2/CycE kinase assay (TR-FRET, 2 mM ATP); assay type: biochemical; conditions: 2 mM ATP (high ATP); median; read-out: CDK2/CyclinE, 2 mM ATP (high ATP), IC50 (median)
T2 construct: purchased ProQinase GmbH (Freiburg, Germany); host or cells: insect cells (Sf9)
Outline: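 GST-tagged human CDK2 and CycE from Sf9 cells, about 10 ng/ml, pre-incubated 15 min at 22 °C with compound in Tris/HCl pH 8.0 buffer. Reaction with 2 mM ATP and 0.75 µM biotinylated peptide for 25 min at 22 °C. Phospho-RB antibody TR-FRET (665/620 nm ratio) read after 1 h; data normalised to no-inhibitor and no-enzyme controls.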

[3] = target: T3, CYCLIN K (nuclear staining in CAL-120 cells) (Homo sapiens, UniProt O75909); assay: CYCLIN K nuclear protein level: immunofluorescence high content analysis (CAL-120); assay type: cell-based; conditions: 24 h, 50% reduction of nuclear CCNK staining intensity, median, read-out: CYCLIN K degradation IF, DC50-[mol/l] (median)
T3 construct: endogenous in cells; host or cells: CAL-120 human breast cancer cells (DSMZ ACC 459)
Outline: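 CAL-120 breast cancer cells treated in dose-response for 24 h at 37 °C, PFA-fixed and immunostained for cyclin K with Hoechst counterstain. Confocal imaging quantified nuclear intensity; DC50 is the concentration giving 50% reduction of nuclear CCNK staining, normalized to DMSO and control.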

T1 sequence (Q9NYV4 whole entry): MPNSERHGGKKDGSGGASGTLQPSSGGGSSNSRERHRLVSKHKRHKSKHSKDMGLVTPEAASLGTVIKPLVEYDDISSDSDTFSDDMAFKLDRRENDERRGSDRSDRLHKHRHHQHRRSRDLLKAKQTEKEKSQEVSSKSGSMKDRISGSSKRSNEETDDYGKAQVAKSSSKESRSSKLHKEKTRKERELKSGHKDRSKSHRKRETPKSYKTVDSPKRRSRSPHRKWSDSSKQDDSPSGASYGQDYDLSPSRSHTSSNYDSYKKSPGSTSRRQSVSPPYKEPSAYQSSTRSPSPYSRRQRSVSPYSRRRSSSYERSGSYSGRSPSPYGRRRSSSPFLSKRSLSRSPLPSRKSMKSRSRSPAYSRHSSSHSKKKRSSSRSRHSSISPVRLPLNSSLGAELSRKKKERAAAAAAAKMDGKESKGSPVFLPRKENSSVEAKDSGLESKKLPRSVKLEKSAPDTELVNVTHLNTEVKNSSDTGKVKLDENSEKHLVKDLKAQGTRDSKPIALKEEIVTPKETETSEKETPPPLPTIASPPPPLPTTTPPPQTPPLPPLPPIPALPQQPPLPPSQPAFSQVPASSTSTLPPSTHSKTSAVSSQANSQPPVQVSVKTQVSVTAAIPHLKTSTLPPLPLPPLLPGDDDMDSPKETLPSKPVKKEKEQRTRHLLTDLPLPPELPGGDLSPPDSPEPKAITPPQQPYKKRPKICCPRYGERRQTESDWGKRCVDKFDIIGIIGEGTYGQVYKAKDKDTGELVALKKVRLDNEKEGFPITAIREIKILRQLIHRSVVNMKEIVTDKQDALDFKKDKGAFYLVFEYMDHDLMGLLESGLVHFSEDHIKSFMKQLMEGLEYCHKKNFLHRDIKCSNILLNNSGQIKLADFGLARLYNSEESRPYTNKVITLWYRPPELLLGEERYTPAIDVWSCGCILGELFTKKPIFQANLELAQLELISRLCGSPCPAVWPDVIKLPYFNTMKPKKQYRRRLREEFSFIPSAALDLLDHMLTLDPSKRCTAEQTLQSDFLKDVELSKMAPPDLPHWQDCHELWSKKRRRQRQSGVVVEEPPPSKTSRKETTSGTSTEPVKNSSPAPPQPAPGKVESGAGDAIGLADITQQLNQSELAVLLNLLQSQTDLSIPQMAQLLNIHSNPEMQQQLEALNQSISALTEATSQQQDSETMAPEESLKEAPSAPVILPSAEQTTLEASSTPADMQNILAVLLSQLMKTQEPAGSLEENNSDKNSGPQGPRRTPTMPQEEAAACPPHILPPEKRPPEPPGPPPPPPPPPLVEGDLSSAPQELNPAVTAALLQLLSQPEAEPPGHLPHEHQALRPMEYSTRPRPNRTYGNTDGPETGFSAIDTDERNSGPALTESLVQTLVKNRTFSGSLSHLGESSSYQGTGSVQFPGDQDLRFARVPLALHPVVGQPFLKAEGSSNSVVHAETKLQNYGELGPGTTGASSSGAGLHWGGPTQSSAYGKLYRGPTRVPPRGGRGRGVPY
T1 sequence (O75909 whole entry partner): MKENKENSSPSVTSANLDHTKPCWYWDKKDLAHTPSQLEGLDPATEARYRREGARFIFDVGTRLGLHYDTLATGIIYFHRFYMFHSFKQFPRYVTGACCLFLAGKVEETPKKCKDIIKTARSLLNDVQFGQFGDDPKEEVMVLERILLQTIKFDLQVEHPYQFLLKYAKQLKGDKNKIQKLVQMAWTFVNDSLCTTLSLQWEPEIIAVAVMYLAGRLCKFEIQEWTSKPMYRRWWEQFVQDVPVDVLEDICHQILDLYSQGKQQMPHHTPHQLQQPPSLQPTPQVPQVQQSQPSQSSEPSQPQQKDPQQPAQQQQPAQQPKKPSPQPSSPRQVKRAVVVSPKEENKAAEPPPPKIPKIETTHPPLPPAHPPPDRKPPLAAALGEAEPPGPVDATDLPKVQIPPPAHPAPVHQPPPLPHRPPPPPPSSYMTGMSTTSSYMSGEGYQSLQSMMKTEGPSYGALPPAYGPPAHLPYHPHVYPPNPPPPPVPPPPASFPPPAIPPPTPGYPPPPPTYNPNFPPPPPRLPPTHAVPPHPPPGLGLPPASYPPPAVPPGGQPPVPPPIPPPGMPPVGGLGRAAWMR
T3 sequence (O75909 whole entry): as the sequence (O75909 whole entry partner) above
T3 sequence (Q9NYV4 whole entry partner): as the sequence (Q9NYV4 whole entry) above

Compound	DC50 [1]	(IC50 CDK12 high ATP) to (Degradation DC50 CDK12) ratio [1]	pIC50 [2]	DC50 [3]
Fc1cccc(-c2cnn3c(NCc4nc5ccccc5[nH]4)nc(N4CCOCC4)nc23)c1 [Example 91, N-[(1H-benzimidazol-2-yl)methyl]-8-(3-fluorophenyl)-2-(morpholin-4-yl)pyrazolo[1,5-a][1,3,5]triazin-4-amine]	42.8 nM	>133	< 4.70	19.6 nM
Fc1ccccc1-c1nnc(CNc2nc(N3CCOCC3)nc3c(Br)cnn23)[nH]1 [Example 75, 8-bromo-N-{[5-(2-fluorophenyl)-4H-1,2,4-triazol-3-yl]methyl}-2-(morpholin-4-yl)pyrazolo[1,5-a][1,3,5]triazin-4-amine]	7.38 nM	>511	5.60	8.7 nM
FC(F)(F)Oc1ccccc1-c1cnc(CNc2nc(N3CCOCC3)nc3c(Br)cnn23)[nH]1 [Example 89, 8-bromo-2-(morpholin-4-yl)-N-({5-[2-(trifluoromethoxy)phenyl]-1H-imidazol-2-yl}methyl)pyrazolo[1,5-a][1,3,5]triazin-4-amine]	7.3 nM	1471	5.01	1.43 nM
COc1cccc(-c2cnc(CNc3nc(N4CCOCC4)nc4c(Br)cnn34)[nH]2)c1 [Example 80, 8-bromo-N-{[5-(3-methoxyphenyl)-1H-imidazol-2-yl]methyl}-2-(morpholin-4-yl)pyrazolo[1,5-a][1,3,5]triazin-4-amine]	4.28 nM	276	5.39	1.34 nM
